Patent US6518302B1, “Remedies” (Takara Shuzo Co., Ltd., priority 1999, dated 2003)
pIC50: −log10 of the molar value. Where two headings read alike, the source gives them in different places.

Assays:
[1] = system: HL-60 (ATCC CCL-240) cells; experiment: Apoptosis morphology in HL-60 cells under optical microscope; assay type: cell-based, Human; conditions: 24 hours
Method: (§1) HL-60 (ATCC CCL-240) cells were cultured at 37° C. in RPMI 1640 medium (Bio Whittaker) containing 10% fetal calf serum (JRH) which had been treated at 56° C. for 30 minutes and suspended in RPMI 1640 medium at a concentration of 2.5×10^5 cells/4.5 ml. […] each of aqueous solutions of the compound (2) at a concentration of 10, 50 or 100 mM, the compound (7) at a concentration of 500, 1000 or 1500 μM, the compound (9) at a concentration of 750, 1500 or 3000 μM, the compound (11) at a concentration of 750, 1500 or 3000 μM, or the compound (14) at a concentration of 750, 1500 or 3000 μM was added to 4.5 ml of the suspension. The mixtures were incubated at 37° C. for 24 hours in the presence of 5% CO2. The cultured cells were examined under an optical microscope.

[2] = system: HL-60 (ATCC CCL-240) cells; experiment: Viability of HL-60 cells by Trypan Blue staining; assay type: cell-based; conditions: Homo sapiens, read-out: Viability50, concentration that results in a viability of 50%
Method: HL-60 (ATCC CCL-240) cells were cultured at 37° C. in RPMI 1640 medium (Bio Whittaker) containing 10% fetal calf serum (JRH) which had been treated at 56° C. for 30 minutes and suspended in RPMI 1640 medium at a concentration of 2.5×10^5 cells/4.5 ml.
[…] each of aqueous solutions of the compound (2) at a concentration of 10, 50 or 100 mM, the compound (7) at a concentration of 500, 1000 or 1500 μM, the compound (9) at a concentration of 750, 1500 or 3000 μM, the compound (11) at a concentration of 750, 1500 or 3000 μM, or the compound (14) at a concentration of 750, 1500 or 3000 μM was added to 4.5 ml of the suspension. The mixtures were incubated at 37° C. for 24 hours in the presence of 5% CO2.
A portion of the cells cultured for 24 or 48 hours as described in Example 4 was stained with 0.4% Trypan Blue and examined under an optical microscope. The number of viable cells which were not stained and the number of dead cells which were stained blue were counted. The concentration of each of the compounds (2), (7), (9), (11) and (14) that results in a viability of 50% (Viability50 mM) was determined.

[3] = system: Human promyelocytic leukemia HL-60 cells; experiment: Antiproliferation activity against HL-60 cells (MTT method); assay type: cell-based; conditions: 48 hour incubation
Method: Human promyelocytic leukemia HL-60 cells (ATCC CCL-240) were cultured at 37° C. in RPMI 1640 medium (Gibco) containing 10% of fetal calf serum (JRH Bioscience) which had been treated at 56° C. for 30 minutes, and suspended in the same medium at a concentration of 5000 cells/90 μl. Each 90 μl portion of the suspension was distributed into each well of a 96-well plate (Falcon). To the suspension in each well was added 10 μl of one the following samples, and incubated at 37° C. in the presence of 5% CO2. The samples were 2-, 4-, 8-, 16-, 32-, 64- or 128-dilutions of filter-sterilized 200 mM aqueous solution of the compound (2) obtained in Example 1, 50 mM aqueous solution of the compound (7), 50 mM aqueous solution of the compound (9), 100 mM aqueous solution of the compound (11), 100 mM aqueous solution of the compound (14), 20 mM aqueous solution of the compound (17), 12.5 mM aqueous solution of the compound (19) or 12.5 mM aqueous solution of the compound (21) with sterile water, as well as water. After 48 hour from the initiation of the incubation, the numbers of viable cells calculated based on the absorbance measured according to the MTT method as described in “Apoptosis Jikken Protocol” (Syuzyun-sha, Seiichi Tanuma, ed., pp. 156 (1994)) were compared each other.

[4] = system: HL-60 (ATCC CCL-240) cells; experiment: Measurement of apoptotic cells using FACScan; assay type: cell-based, Human; conditions: HL-60 cells, 24 hours
Method: as §1, with “CO2. Measurement of apoptotic cells using FACScan as described in Saibo Kogaku, Bessatsu (Cell Technology, Suppl.) Jikken Protocol Series: Apoptosis Jikken Protocol (Experimental Protocol Series: Experimental Protocols for Apoptosis) (Shujun-sha) pp. 129-130 and analysis of DNA fragmentation as described in Bio Manual UP Series: […] Apoptosis Jikken-ho (Bio Manual UP Series: Current Experimental Methods for Apoptosis) (Yodo-sha) pp. 61-63 were carried out using cells” for “CO2. The”, “cultured for 24 or 48 hours in the same manner as that described above.” for “cultured cells were examined under an optical microscope.”

[5] = Conversion into DGE in culture medium (thin-layer chromatography); assay type: in vitro ADME; conditions: 10 mM in RPMI 1640 medium with 10% calf serum, 37° C., 4 hours
Method: The compound (7) or the compound (9) synthesized in Example 1 was dissolved at a final concentration of 10 mM in RPMI 1640 medium supplemented with 10% calf serum. These samples were allowed to stand at 37° C. for 4 hours. […] each of the samples was then subjected to thin-layer chromatography using chloroform:methanol=5:1 as a developing solvent. Detection was carried out using orcinol-sulfuric acid.
For each sample, a spot with Rf value of 0.5, the same value as that for the compound of general formula IV in which Z is CH2OH and Y is H (L-glycero-1,5-epoxy-1αβ,6-dihydroxy-cis-hex-3-en-2-one, hereinafter referred to as DGE), was detected.

[6] = system: HL-60 (ATCC CCL-240) cells; experiment: Analysis of DNA fragmentation; assay type: cell-based, Human; conditions: HL-60 cells
Method: as §1, with “CO2. Measurement of apoptotic cells using FACScan as described in Saibo Kogaku, Bessatsu (Cell Technology, Suppl.) Jikken Protocol Series: Apoptosis Jikken Protocol (Experimental Protocol Series: Experimental Protocols for Apoptosis) (Shujun-sha) pp. 129-130 and analysis of DNA fragmentation as described in Bio Manual UP Series: […] Apoptosis Jikken-ho (Bio Manual UP Series: Current Experimental Methods for Apoptosis) (Yodo-sha) pp. 61-63 were carried out using cells” for “CO2. The”, “cultured for 24 or 48 hours in the same manner as that described above.” for “cultured cells were examined under an optical microscope.”

pIC50 ([2]; 24 hours): 1.74
pIC50 ([2]; 48 hours): 2.47
pIC50 ([3]; Homo sapiens, HL-60 cells, read-out: IC50, concentration at which 50% of the proliferation is inhibited): 3.07
conversion into DGE (spot with Rf value of 0.5, the same value as DGE) [5]: conversion into DGE was also observed
Structure (SMILES): O=C[C@H](O)[C@H]1OC[C@@H](O)[C@@H]1O [Compound (2), 3,6-anhydro-D-galactose, reference compound]
final concentration at which condensation of nuclei, shrinking of cells and formation of apoptotic bodies were observed [1]: ≥ 5 mM
antiproliferation activity against HL-60 cells [3]: exhibited antiproliferation activities
final concentration at which apoptotic cells were observed [4]: ≥ 5 mM
final concentration at which DNA fragmentation was observed ([6]; 24 hours): ≥ 5 mM
final concentration at which DNA fragmentation was observed ([6]; 48 hours): ≥ 1 mM
